Results taken from article PMC12677607, “Identification of a Pair of Linear or Cyclic Naturally Inspired Bifunctional Lipopeptide Antibiotics That Overcome Antimicrobial Resistance” (Advanced Science, 2025).
Values after ≈ are worked out from the molar mass of the structure shown. Square brackets hold non-standard residues; d marks the D form. Peptide text beside a SMILES is read from it. * marks the point of attachment. Myristoyl = CCCCCCCCCCCCCC(=O)*; X2 = NC[C@H](Cc1ccc(O)cc1)N*; dOrn = NCCC[C@@H](N)C(=O)O; X1 = CC(C)[C@H](O)CC(=O)*; Orn = NCCC[C@H](N)C(=O)O; βAla = NCCC(=O)O

Assays:
[1] = parameters: method as in earlier work; settings: Figure S20; cited from earlier work
[2] = parameters: method as in earlier work; settings: Figure S20; cited from earlier work; remark: listed apart in the source
[3] = test system: Gram negative and positive bacteria; parameters: method as in 2 sources, one per row (each row's own in cited_ref): ref 49 (a number printed in a supplementary file, which may have a reference list of its own: not looked up in the article's list) ||| ref 50 (a number printed in a supplementary file, which may have a reference list of its own: not looked up in the article's list); settings: Figure S20, known paired peptides; cited from earlier work
[4] = test system: Streptococcus mutans ATCC 25175; test: microbe, parasite or virus in culture; format: cell-based; settings: ATCC 25175, 16 h
Summary of the method: (§1)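 Broth microdilution in LB, run in two independent repeats. Overnight cultures were diluted 5000-fold, except S. aureus at 10000-fold, and mixed with peptide-containing LB (2-fold series, 64 to 0.125 µg mL^−1 before mixing). MIC is the lowest concentration that prevented visible growth.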

[5] = test system: Pseudomonas aeruginosa ATCC 9027; test: microbe, parasite or virus in culture; format: cell-based; settings: ATCC 9027, 16 h
Summary of the method: as §1

[6] = test system: Klebsiella pneumoniae CRKP HS11286; test: microbe, parasite or virus in culture; format: cell-based; settings: CRKP HS11286, 16 h
Summary of the method: as §1

[7] = test system: Klebsiella pneumoniae CRKP 5452; test: microbe, parasite or virus in culture; format: cell-based; settings: Table S11; LB broth, 37 °C, 16 h, n = 2
Summary of the method: as §1

[8] = test system: Staphylococcus aureus ATCC 6538; test: microbe, parasite or virus in culture; format: cell-based; settings: ATCC 6538, 16 h
Summary of the method: as §1

[9] = test system: Acinetobacter baumannii ATCC 17978; test: microbe, parasite or virus in culture; format: cell-based; settings: ATCC 17978, 16 h
Summary of the method: as §1

[10] = test system: Acinetobacter baumannii 1104008; test: microbe, parasite or virus in culture; format: cell-based; settings: Table S11; LB broth, 37 °C, 16 h, n = 2
Summary of the method: as §1

[11] = test system: Staphylococcus aureus USA300; test: microbe, parasite or virus in culture; format: cell-based; settings: Table S11; LB broth, 37 °C, 16 h, n = 2
Summary of the method: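 MIC = lowest peptide concentration with no visible growth; LB broth microdilution, n = 2. Inoculum: overnight culture diluted 5000× (S. aureus 10000×). Peptides serially diluted 2-fold, 64–0.125 µg mL^−1 in the broth added to cells.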

[12] = test system: Enterococcus faecalis 26; test: microbe, parasite or virus in culture; format: cell-based; settings: 26, 16 h
Summary of the method: as §1

[13] = test system: Pseudomonas aeruginosa PAO1; test: microbe, parasite or virus in culture; format: cell-based; settings: PAO1, 16 h
Summary of the method: as §1

[14] = test system: Staphylococcus aureus ATCC 25923; test: microbe, parasite or virus in culture; format: cell-based; settings: ATCC 25923, 16 h
Summary of the method: as §1

[15] = test system: Salmonella typhimurium LXX; test: microbe, parasite or virus in culture; format: cell-based; settings: murium LXX, 16 h
Summary of the method: as §1

[16] = test system: Enterococcus faecalis ATCC 29212; test: microbe, parasite or virus in culture; format: cell-based; settings: ATCC 29212, 16 h
Summary of the method: as §1

[17] = test system: Salmonella enterica ATCC 14028; test: microbe, parasite or virus in culture; format: cell-based; settings: ATCC 14028, 16 h
Summary of the method: as §1

[18] = test system: Acinetobacter baumannii P53; test: microbe, parasite or virus in culture; format: cell-based; settings: Table S11; LB broth, 37 °C, 16 h, n = 2
Summary of the method: as §1

[19] = test system: Acinetobacter baumannii ATCC 19606; test: microbe, parasite or virus in culture; format: cell-based; settings: ATCC 19606, 16 h
Summary of the method: as §1

[20] = test system: Klebsiella pneumoniae ATCC 13883; test: microbe, parasite or virus in culture; format: cell-based; settings: ATCC 13883, 16 h
Summary of the method: as §1

[21] = test system: Streptococcus pyogenes ATCC 19615; test: microbe, parasite or virus in culture; format: cell-based; settings: Table S11; LB broth, 37 °C, 16 h, n = 2
Summary of the method: as §1

[22] = test system: Vibrio alginolyticus XSBZ14; test: microbe, parasite or virus in culture; format: cell-based; settings: 16 h
Summary of the method: as §1

[23] = test system: Staphylococcus aureus Newman; test: microbe, parasite or virus in culture; format: cell-based; settings: Newman, 16 h
Summary of the method: as §1

[24] = test system: Enterococcus faecalis 28; test: microbe, parasite or virus in culture; format: cell-based; settings: 28, 16 h
Summary of the method: as §1

[25] = test system: Klebsiella pneumoniae NCTC 5056; test: microbe, parasite or virus in culture; format: cell-based; settings: NCTC 5056, 16 h
Summary of the method: as §1

[26] = test system: Enterococcus faecium 35682; test: microbe, parasite or virus in culture; format: cell-based; settings: 35682, 16 h
Summary of the method: as §1

[27] = test system: Shigella Castellani LXX; test: MIC assay (broth micro-dilution); format: cell-based; settings: Table S11; LB broth, 37 °C, 16 h, n = 2
Description: (§2) All MIC assays were performed two independent times (n = 2) in 96‐well plates using a broth micro‐dilution method. The lowest concentration of that inhibited visible microbial growth was recorded as the MIC value.
(§3) For most of bacterial strains, overnight cultures were diluted 5000‐fold in LB broth. For E. faecium and S. aureus, overnight cultures were diluted 1000‐ and 10000‐fold in LB broth, respectively. 100 µL of diluted cells was mixed with 100 µL of LB broth containing each peptide ranging from 64 to 0.125 µg mL^−1 at 2‐fold serial dilutions.

[28] = test system: B. subtilis ATCC 23857; test: MIC assay (broth micro-dilution); format: cell-based; settings: Table S11; LB broth, 37 °C, 16 h, n = 2
Description: as §2, §3

[29] = test system: Candida albicans ATCC 64550; format: cell-based; settings: ATCC 64550, 16 h
Description: as §2
(§4) For fungal strains, overnight cultures were diluted 2000‐fold in YPD broth. 100 µL of diluted cells was mixed with 100 µL of YPD broth containing each peptide ranging from […] 64 to 0.125 µg mL^−1 at 2‐fold serial dilutions.

[30] = test system: Candida albicans ATCC 10231; test: MIC assay (YPD broth); format: cell-based; settings: Table S11; YPD broth, 30 °C, 16 h, n = 2
Description: as §2, §4

[31] = test system: Gram negative bacteria; parameters: method as in 2 sources, one per row (each row's own in cited_ref): ref 27 (a number printed in a supplementary file, which may have a reference list of its own: not looked up in the article's list) ||| ref 26 = [26]; PMID 24281661; doi:10.1038/ja.2013.121; 26 S. Kozuma , Y. Hirota‐Takahata , D. Fukuda , N. Kuraya , M. Nakajima , O , A , J. Antibiot. (Tokyo) 2014 , 67 , 237 . 24281661 10.1038/ja.2013.121; settings: cited from earlier work; for MIC, anti-Gram negative activity: Figure S20, known paired peptides
Description: All 17 synAQUs were initially assayed for antimicrobial activity against four Gram‐negative bacteria, four Gram‐positive bacteria, and one fungal pathogen.

[32] = test system: Escherichia coli DH5α; test: MIC assay (broth micro-dilution); format: cell-based; settings: Table S11; LB broth, 37 °C, 16 h, n = 2
Description: as §2, §3

Compound: Bacaucin-1
- hemolytic activity [1]: No hemolytic activity
- cytotoxic activity [2]: No cytotoxic activity
- antibacterial activity [3]: Specific anti-bacterial activity against MR S A

Compound: CCCCCCCCCCCCCC(=O)N[C@@H](CCCN)C(=O)N[C@H](Cc1ccc(O)cc1)C(=O)N[C@@H](C(=O)N[C@@H](C(=O)N[C@H](CCCN)C(=O)N[C@@H](CCCN)C(=O)N[C@@H](C(=O)N[C@H](C(=O)N[C@@H](CC(C)C)C(=O)N[C@H](CCCN)C(=O)N[C@H](C(=O)N[C@@H](C)C(=O)O)[C@@H](C)O)[C@@H](C)CC)C(C)C)[C@H](C)O)C(C)C [synAQU6-L] (Myristoyl-[Orn][dY][dV][dT][dOrn][Orn][dV]IL[dOrn]TA-OH)
- MIC Streptococcus mutans ATCC 25175 [4]: 4 mg/L (≈ 2.59 µM)
- MIC Pseudomonas aeruginosa ATCC 9027 [5]: 32 mg/L (≈ 20.7 µM)
- MIC Klebsiella pneumoniae CRKP HS11286 [6]: > 64 mg/L
- MIC Klebsiella pneumoniae CRKP 5452 [7]: > 64 mg/L
- MIC Staphylococcus aureus ATCC 6538 [8]: 32 mg/L (≈ 20.7 µM)
- MIC Acinetobacter baumannii ATCC 17978 [9]: 32 mg/L (≈ 20.7 µM)
- MIC Acinetobacter baumannii 1104008 [10]: > 64 mg/L
- MIC Staphylococcus aureus USA300 [11]: > 64 mg/L
- MIC Enterococcus faecalis 26 [12]: 4 mg/L (≈ 2.59 µM)
- MIC Pseudomonas aeruginosa PAO1 [13]: > 64 mg/L
- MIC Staphylococcus aureus ATCC 25923 [14]: > 64 mg/L
- MIC Salmonella typhimurium LXX [15]: > 64 mg/L
- MIC Enterococcus faecalis ATCC 29212 [16]: > 64 mg/L
- MIC Salmonella enterica ATCC 14028 [17]: > 64 mg/L
- MIC Acinetobacter baumannii P53 [18]: > 64 mg/L
- MIC Acinetobacter baumannii ATCC 19606 [19]: > 64 mg/L
- MIC Klebsiella pneumoniae ATCC 13883 [20]: > 64 mg/L
- MIC Streptococcus pyogenes ATCC 19615 [21]: 2 mg/L (≈ 1.29 µM)
- MIC Vibrio alginolyticus XSBZ14 [22]: > 64 mg/L
- MIC Staphylococcus aureus Newman [23]: > 64 mg/L
- MIC Enterococcus faecalis 28 [24]: > 64 mg/L
- MIC Klebsiella pneumoniae NCTC 5056 [25]: > 64 mg/L
- MIC Enterococcus faecium 35682 [26]: > 64 mg/L
- MIC Shigella Castellani LXX [27]: > 64 mg/L
- MIC Bacllussubtilis ATCC 23857 [28]: 8 mg/L (≈ 5.17 µM)
- MIC Candida albicans ATCC 64550 [29]: > 64 mg/L
- MIC Candida albicans ATCC 10231 [30]: > 64 mg/L

Compound: pedopeptin B
- anti-Gram-negative activity ([31]; in words): potent anti‐Gram‐negative activity

Compound: Laterocidine
- MIC, anti-Gram negative activity [31]: 2 to 4 mg/L

Compound: Brevicidine
- MIC, anti-Gram negative activity [31]: 2 to 4 mg/L

Compound: CC[C@H](C)[C@H](NC(=O)[C@@H](NC(=O)[C@@H](C)NC(=O)[C@H](C)NC(=O)[C@@H](NC(=O)C[C@@H](O)C(C)C)C(C)C)[C@@H](C)CC)C(=O)NCCC(=O)N[C@@H](CC(C)C)C(=O)N[C@H](C)C(=O)N[C@H](C(=O)N[C@H](CN)Cc1ccc(O)cc1)[C@@H](C)CC [synAQU4-L] (X1-VA[dA]II[βAla]L[dA]I-X2)
- MIC Streptococcus mutans ATCC 25175 [4]: 16 mg/L (≈ 14.3 µM)
- MIC Pseudomonas aeruginosa ATCC 9027 [5]: > 64 mg/L
- MIC Klebsiella pneumoniae CRKP HS11286 [6]: > 64 mg/L
- MIC Klebsiella pneumoniae CRKP 5452 [7]: > 64 mg/L
- MIC Staphylococcus aureus ATCC 6538 [8]: > 64 mg/L
- MIC Acinetobacter baumannii ATCC 17978 [9]: > 64 mg/L
- MIC Acinetobacter baumannii 1104008 [10]: > 64 mg/L
- MIC Staphylococcus aureus USA300 [11]: > 64 mg/L
- MIC Enterococcus faecalis 26 [12]: > 64 mg/L
- MIC Pseudomonas aeruginosa PAO1 [13]: > 64 mg/L
- MIC Staphylococcus aureus ATCC 25923 [14]: > 64 mg/L
- MIC Salmonella typhimurium LXX [15]: > 64 mg/L
- MIC Enterococcus faecalis ATCC 29212 [16]: > 64 mg/L
- MIC Salmonella enterica ATCC 14028 [17]: > 64 mg/L
- MIC Acinetobacter baumannii P53 [18]: > 64 mg/L
- MIC Acinetobacter baumannii ATCC 19606 [19]: > 64 mg/L
- MIC Klebsiella pneumoniae ATCC 13883 [20]: > 64 mg/L
- MIC Streptococcus pyogenes ATCC 19615 [21]: 4 mg/L (≈ 3.58 µM)
- MIC Vibrio alginolyticus XSBZ14 [22]: > 64 mg/L
- MIC Staphylococcus aureus Newman [23]: > 64 mg/L
- MIC Enterococcus faecalis 28 [24]: > 64 mg/L
- MIC Klebsiella pneumoniae NCTC 5056 [25]: > 64 mg/L
- MIC Enterococcus faecium 35682 [26]: > 64 mg/L
- MIC Escherichia coli DH5α [32]: > 64 mg/L
- MIC Shigella Castellani LXX [27]: > 64 mg/L
- MIC Bacllussubtilis ATCC 23857 [28]: > 64 mg/L
- MIC Candida albicans ATCC 64550 [29]: > 64 mg/L
- MIC Candida albicans ATCC 10231 [30]: > 64 mg/L

Compound: Bacaucin
- hemolytic activity [1]: He mo l y t i c
- cytotoxic activity [2]: Cyt ot oxic
- antibacterial activity [3]: Broad antibacterial activity
